The compounds below were run against Glutamate NMDA receptor (assay: Binding potency for NMDA site of the glutamate receptor complex using rat brain cortical membranes in a competitive binding assay with [3H]CPP as the radioligand).
Format: cell membranes, Membrane

SMILES | IC50 [nM]
C[C@]1(C(=O)CP(=O)(O)O)CCCN[C@H]1C(=O)O | 320
C[C@]1(C(=O)CP(=O)(O)O)C=CCN[C@H]1C(=O)O | 3.2
O=C(CP(=O)(O)O)C1=CCCN[C@H]1C(=O)O | 7.6

More lines, now with the values ahead:

IC50 [nM] | SMILES
40 | O=C(CP(=O)(O)O)[C@H]1CCCN[C@H]1C(=O)O
15 | C[C@@H]1CCN[C@@H](C(=O)O)[C@H]1C(=O)CP(=O)(O)O
